Results published in publication PMC7280082 (Acta Pharmaceutica Sinica. B, 2019).

What was measured:
WT HIV-1 (IIIB) = experiment: microbe, parasite or virus in culture; type: cell-based; settings: for EC50: Human immunodeficiency virus 1, IIIB, MT4, read-out: EC50 IIIB; for SI IIIB: ratio of CC50/EC50
HIV-2 strain (ROD) = experiment: Anti-HIV-2; type: cell-based; settings: for EC50: Human immunodeficiency virus 2, MT4, read-out: EC50 ROD; for SI ROD: ratio of CC50/EC50
[1] = tested on: HIV-1 L100I mutant strain; experiment: microbe, parasite or virus in culture; type: cell-based; settings: for SI L100I: CC50/EC50; for EC50: Human immunodeficiency virus 1, MT4, read-out: EC50 L100I; for RF L100I: ratio of EC50 (resistant viral strain)/EC50 (wild-type viral strain)
[2] = tested on: HIV-1 K103N mutant strain; experiment: microbe, parasite or virus in culture; type: cell-based; settings: for SI K103N: CC50/EC50; for EC50: Human immunodeficiency virus 1, MT4, read-out: EC50 K103N; for RF K103N: ratio of EC50 (resistant viral strain)/EC50 (wild-type viral strain)
[3] = tested on: HIV-1 Y181C mutant strain; experiment: microbe, parasite or virus in culture; type: cell-based; settings: for SI Y181C: CC50/EC50; for EC50: Human immunodeficiency virus 1, MT4, read-out: EC50 Y181C; for RF Y181C: ratio of EC50 (resistant viral strain)/EC50 (wild-type viral strain)
[4] = tested on: HIV-1 Y188L mutant strain; experiment: microbe, parasite or virus in culture; type: cell-based; settings: for SI Y188L: CC50/EC50; for EC50: Human immunodeficiency virus 1, MT4, read-out: EC50 Y188L; for RF Y188L: ratio of EC50 (resistant viral strain)/EC50 (wild-type viral strain)
[5] = tested on: HIV-1 E138K mutant strain; experiment: microbe, parasite or virus in culture; type: cell-based; settings: for SI E138K: CC50/EC50; for EC50: Human immunodeficiency virus 1, MT4, read-out: EC50 E138K; for RF E138K: ratio of EC50 (resistant viral strain)/EC50 (wild-type viral strain)
[6] = tested on: HIV-1 F227L + V106A double-mutant strain; experiment: microbe, parasite or virus in culture; type: cell-based; settings: for SI F227L + V106A: CC50/EC50; for EC50: Human immunodeficiency virus 1, MT4, read-out: EC50 F227L + V106A; for RF F227L + V106A: ratio of EC50 (resistant viral strain)/EC50 (wild-type viral strain)
[7] = tested on: HIV-1 RES056 (K103N + Y181C) double-mutant strain; experiment: microbe, parasite or virus in culture; type: cell-based; settings: for SI RES056: CC50/EC50; for EC50: Human immunodeficiency virus 1, MT4, read-out: EC50 RES056; for RF RES056: ratio of EC50 (resistant viral strain)/EC50 (wild-type viral strain)
WT HIV-1 RT = WT HIV-1 RT (Human immunodeficiency virus type 1 group M subtype B, UniProt P03366); experiment: Recombinant HIV-1 RT inhibitory assay; type: biochemical
Kunming mice = experiment: Acute toxicity experiment in Kunming mice; type: in vivo; settings: single oral dose of 2000 mg/kg
[8] = In vivo pharmacokinetics in Wistar rat; settings: plasma
[9] = Cytotoxicity in mock-infected MT-4 cell cultures, MTT method; settings: human, mock-infected MT-4 cells

Compound	EC50 (WT HIV-1 (IIIB)) [nM]	SI IIIB (WT HIV-1 (IIIB))	EC50 (HIV-2 strain (ROD)) [nM]	SI ROD (HIV-2 strain (ROD))	SI L100I [1]	EC50 [1] [nM]	RF L100I [1]	SI K103N [2]	EC50 [2] [nM]	SI Y181C [3]	EC50 [3] [nM]	RF Y181C [3]	SI Y188L [4]	EC50 [4] [nM]	RF Y188L [4]	SI E138K [5]	EC50 [5] [nM]	RF E138K [5]	SI F227L + V106A [6]	EC50 [6] [nM]	also measured
Cc1cc(-c2ccc(C#N)cc2)cc(C)c1Oc1nc(NC2CCN(Cc3ccc(C(N)=O)cc3)CC2)nc2ccsc12 [Compound 26, 4-((4-((4-((4′-Cyano-3,5-dimethyl-[1,1′-biphenyl]-4-yl)oxy)thieno[3,2-d]pyrimidin-2-yl)amino)piperidin-1-yl)methyl)benzamide]	9.93 ± 1.27	552	> 5490	<1	521	10.5 ± 4.56	1.1	910	6.02 ± 0.84	290	18.9 ± 2.28	1.9	229	23.9 ± 2.4	2.4	236	23.2 ± 8.64	2.3	56	97.2 ± 25.3	RF F227L + V106A [6]: 9.8; SI RES056 [7]: 44; EC50 [7]: 125 ± 39.3 nM; RF RES056 [7]: 12.6; IC50 (WT HIV-1 RT): 182 ± 16 nM; mortality or poisoning symptom (Kunming mice): no mortality or poisoning symptom; AUC(0-inf) ([8]; iv, 2 mg/kg): 1340 ± 53.9 ng·h/mL; AUC(0-t) ([8]; iv, 2 mg/kg): 1290 ± 62.7 ng·h/mL; Cmax ([8]; iv, 2 mg/kg): 941 ± 181 ng/mL; clearance ([8]; iv, 2 mg/kg): 25 ± 1.04 mL/min/kg; half-life ([8]; iv, 2 mg/kg): 1.71 ± 0.24 h; bioavailability ([8]; oral, 20 mg/kg): 33.8%; AUC(0-inf) ([8]; po, 20 mg/kg): 4760 ± 1350 ng·h/mL; AUC(0-t) ([8]; po, 20 mg/kg): 4360 ± 1570 ng·h/mL; Cmax ([8]; po, 20 mg/kg): 762 ± 296 ng/mL; Tmax ([8]; po, 20 mg/kg): 2 ± 0.32 h; half-life ([8]; po, 20 mg/kg): 2.68 ± 0.2 h; CC50 at 5 days [9]: 5480 ± 2120 nM
Cc1cc(-c2ccc(N(C)C)cc2)cc(C)c1Oc1nc(NC2CCN(Cc3ccc(C(N)=O)cc3)CC2)nc2ccsc12 [Compound 30, 4-((4-((4-((4'-(Dimethylamino)-3,5-dimethyl-[1,1′-biphenyl]-4-yl)oxy)thieno[3,2-d]pyrimidin-2-yl)amino)piperidin-1-yl)methyl)benzamide]	176 ± 26.4	134	> 23500	<1	21	1120 ± 543	6.3	135	173 ± 46.3	40	585 ± 33.3	3.3	42	556 ± 57.4	3.2	96	245 ± 173	1.4	19	1250 ± 804	RF K103N [2]: 1.0; RF F227L + V106A [6]: 7.1; SI RES056 [7]: < 1; EC50 [7]: > 23500 nM; RF RES056 [7]: > 133; IC50 (WT HIV-1 RT): 473 ± 59 nM; CC50 at 5 days [9]: 23500 ± 380 nM
Cc1cc(-c2cccc(N(C)C)c2)cc(C)c1Oc1nc(NC2CCN(Cc3ccc(S(N)(=O)=O)cc3)CC2)nc2ccsc12 [Compound 31, 4-((4-((4-((3'-(Dimethylamino)-3,5-dimethyl-[1,1′-biphenyl]-4-yl)oxy)thieno[3,2-d]pyrimidin-2-yl)amino)piperidin-1-yl)methyl)benzenesulfonamide]	882 ± 323	125	> 110000	<1	46	2400 ± 256	2.7	161	685 ± 0.21	48	2300 ± 413	2.6	55	1990 ± 46.5	2.3	112	979 ± 185	1.1	51	2160 ± 298	RF K103N [2]: 0.8; RF F227L + V106A [6]: 2.4; SI RES056 [7]: 4; EC50 [7]: 29600 nM; RF RES056 [7]: 33.5; IC50 (WT HIV-1 RT): 1680 ± 56 nM; CC50 at 5 days [9]: 110000 ± 1460 nM
Cc1cc(-c2cccc(N(C)C)c2)cc(C)c1Oc1nc(NC2CCN(Cc3ccc(C(N)=O)cc3)CC2)nc2ccsc12 [Compound 32, 4-((4-((4-((3'-(Dimethylamino)-3,5-dimethyl-[1,1′-biphenyl]-4-yl)oxy)thieno[3,2-d]pyrimidin-2-yl)amino)piperidin-1-yl)methyl)benzamide]	163 ± 57.8	121	4660 ± 824	4	17	1140 ± 99.2	6.9	93	212 ± 7.34	32	626 ± 39.2	3.8	36	552 ± 45.6	3.4	100	198 ± 34.2	1.2	25	783 ± 196	RF K103N [2]: 1.3; RF F227L + V106A [6]: 4.8; SI RES056 [7]: 5; EC50 [7]: 4300 ± 1540 nM; RF RES056 [7]: 26.2; IC50 (WT HIV-1 RT): 271 ± 16 nM; CC50 at 5 days [9]: 19800 ± 4470 nM
